The source of these data is patent publication US10472349B2, “Salt of pyridinyl amino pyrimidine derivative, preparation method therefor, and application thereof” (SHANGHAI ALLIST PHARMACEUTICALS, INC., priority 2016, dated 2019).

Each structure is given as a SMILES string. Counter-ions that a name gives are not always drawn.

Data set [1] has as its system subcutaneously transplanted tumors of human lung cancer H1975. The data set can be described thus: Inhibition effect on the growth of subcutaneously transplanted tumors of human lung cancer H1975-bearing nude mice. The class given is in vivo. The settings on record: 25 mg/kg intragastric, once per day for 21 days. An excerpt: The pharmacodynamics of the mesylate salts of the compound of formula (I) in terms of inhibiting the growth of transplanted tumors in animal may be assayed by conventional methods. One preferable evaluation method aims to the inhibitory effect on the growth of subcutaneously transplanted tumors of human lung cancer H1975-bearing nude mice. The experimental method may be as follows: human lung cancer H1975 cell strain (5×10^6/each mouse) is inoculated to nude mice subcutaneously at the right side of the back thereof. After the tumors grow to 100-150 mm^3 on average, the animals are divided into groups randomly according to the tumor size and the animal weight. […] During the entire experimental process, the animal weight and the tumor size are measured twice per week, so as to observe whether or not the toxic reaction occurs.
The tumor volume is calculated as follows: Tumor volume (mm^3)=0.5×Tumor major diameter×Tumor minor diameter×Tumor minor diameter. […]
Cell cultivation: H1975 was placed in a RPMI-1640 medium containing 10% FBS, and cultivated in a temperature-constant incubator containing 5% CO2 at 37° C. The cells in exponential growth phase were collected and counted for inoculation. […]
The tumor volume was calculated as follows: Tumor volume (mm^3)=0.5×Tumor major diameter×Tumor minor diameter×Tumor minor diameter.

Data set [2] is described as follows: Drug absorption experiment in SD rats, intravenous administration. Format: in vivo, SD rats (Sprague Dawley rats). As to conditions: plasma. How it is done:
The determination method for the absolute bioavailability of the intragastric administration of the mesylate salts of the compound of formula (I) is as follows: • For intravenous administration: Healthy SD rats are randomly grouped. The tested compound is administered in a certain dosage D through the intravenous administration. The blood samples are collected through the retrobulbar venous plexus before the administration and 5 min, 15 min, 0.5 h, 1.0 h, 2.0 h, 4.0 h, 8.0 h, 12 h and 24 h after the administration, and separated to give plasmas. The concentration of the drug in plasma is determined with the liquid chromatography-tandem mass spectrometry method to give a drug concentration-time curve. • For intragastric administration: Healthy SD rats are randomly grouped. The tested substance is administered in a certain dosage D through the intragastric administration. The intravenous blood samples are collected through the rat's retrobulbar venous plexus before the administration and 0.5, 1.0, 2.0, 4.0, 6.0, 8.0, 10, 12 and 24 h after the administration, and separated to give plasmas. The concentration of the drug in plasma is determined with the liquid chromatography-tandem mass spectrometry method to give a drug concentration-time curve.
For intravenous administration: 16 healthy (half male and half female) SD rats with 200-280 g body weight, provided by Shanghai Sippr-BK laboratory animal Co. Ltd., were assigned randomly to 4 groups. […] 0.2 ml of the intravenous blood samples were collected through the rat's retrobulbar venous plexus before the administration and 5 min, 15 min, 0.5 h, 1.0 h, 2.0 h, 4.0 h, 8.0 h, 12 h and 24 h after the administration, and separated to give plasmas. The concentration of the drug in plasma was determined with the liquid chromatography-tandem mass spectrometry method to give a drug concentration-time curve.
T1/2: elimination half-life; Cmax: maximum drug concentration in plasma; AUC0-t: area under drug concentration-time curve.

A short description of data set [3]: Drug absorption experiment in SD rats, intragastric administration. As to conditions: for half-life: read-out: T1/2 (elimination half-life) (converted). The class given is in vivo, SD rats (Sprague Dawley rats). As to the method: The determination method for the absolute bioavailability of the intragastric administration of the mesylate salts of the compound of formula (I) is as follows: • For intravenous administration: Healthy SD rats are randomly grouped. The tested compound is administered in a certain dosage D through the intravenous administration. The blood samples are collected through the retrobulbar venous plexus before the administration and 5 min, 15 min, 0.5 h, 1.0 h, 2.0 h, 4.0 h, 8.0 h, 12 h and 24 h after the administration, and separated to give plasmas. […] The tested substance is administered in a certain dosage D through the intragastric administration.
After dosage calibration, the absolute bioavailability F is calculated by the area under the drug concentration-time curve (AUC0-t). The calculation equation is as follows: F=(AUCintragastric×Dintravenous)/(AUCintravenous[…])×100%.
For intragastric administration: 16 healthy (half male and half female) SD rats with 200-280 g body weight, provided by Shanghai Sippr-BK laboratory animal Co. Ltd., were assigned randomly to 4 groups.
After dosage calibration, the absolute bioavailability F was obtained by calculation of AUC0-t. The calculation equation was as follows: F=(AUCintragastric×Dintravenous)/(AUCintravenous×Dintragastric)×100%. The obtained absolute bioavailability F data are shown in the above table 2.

Where [4] appears, read: intragastric, dosage 10 (Example 1), 10 (Example 2), 6 (Comparative Example 1), 10 (Comparative Example 2) mg/kg, plasma.
[5] abbreviates: both sexes, Sprague-Dawley, rat, plasma, po, intragastric, dosage 10 (Example 1), 10 (Example 2), 6 (Comparative Example 1), 10 (Comparative Example 2) mg/kg, plasma, read-out: AUC0-t.
[6] abbreviates: both sexes, Sprague-Dawley, rat, plasma, po, intragastric, dosage 10 (Example 1), 10 (Example 2), 6 (Comparative Example 1), 10 (Comparative Example 2) mg/kg, plasma, read-out: Cmax.
Where [7] appears, read: both sexes, Sprague-Dawley, rat, plasma, po, intragastric, dosage 10 (Example 1), 10 (Example 2), 6 (Comparative Example 1), 10 (Comparative Example 2) mg/kg, plasma.
[8] abbreviates: SD rats, intravenous, dosage 2.5 (Example 1), 4.0 (Example 2), 3.0 (Comparative Example 1), 4.0 (Comparative Example 2) mg/kg.

What is called Cmax is the maximum level reached in the sampled fluid or tissue. The bioavailability is dose-corrected exposure relative to a reference, in per cent. In the case of `C=CC(=O)Nc1cc(Nc2nccc(-c3cn(C)c4ccccc34)n2)c(OCC(F)(F)F)nc1N(C)CCN(C)C` [Example 2, mesylate salt of N-{2-{[2-(dimethylamino)ethyl](methyl)amino}-6-(2,2,2-trifluoroethoxy)-5-{[4-(1-methyl-1H-indol-3-yl)pyrimidin-2-yl]amino}pyridin-3-yl}acrylamide], in data set [1], the “Inhibition effect on the growth of subcutaneously transplanted tumors” value was “good inhibition effect” and the “Safety (body weight, toxic reaction)” value is listed as “good safety”. Moreover, the AUC(0-t) in data set [2] (both sexes, Sprague-Dawley, rat, iv, read-out: AUC0-t) was determined as 406 ng·h/mL. For the same compound, the highest concentration (Cmax) in data set [2] (both sexes, Sprague-Dawley, rat, iv, read-out: Cmax) is 430 ng/mL. The half-life in data set [2] (both sexes, Sprague-Dawley, rat, iv, read-out: T1/2 (elimination half-life) (converted)) was 3.13 h. In data set [3] (both sexes, Sprague-Dawley, rat, plasma, oral, intragastric vs intravenous, calculated from AUC0-t after dosage calibration, read-out: F (absolute bioavailability)), the bioavailability is 28.3%. Also, in data set [3] (setting [4]), the AUC(0-t) came to 287 ng·h/mL, the highest concentration (Cmax) amounted to 44.54 ng/mL and the “T1/2 (elimination half-life)” value was determined as 8.33 h.
Take `C=CC(=O)Nc1cc(Nc2nccc(-c3cn(C)c4ccccc34)n2)c(OC(C)C)nc1N(C)CCN(C)C` [Comparative Example 1, reference compound]: the AUC(0-t) in data set [3] (setting [5]) was found to be 77.7 ng·h/mL. In addition, the Cmax in data set [3] (setting [6]) turned out to be 12.6 ng/mL. In addition, in data set [3] (setting [7]), the half-life was 8.6 h.
Turning to `C=CC(=O)Nc1cc(Nc2ncc(Cl)c(-c3cn(C)c4ccccc34)n2)c(OC(C)C)nc1N(C)CCN(C)C` [Comparative Example 2, reference compound], the AUC(0-t) in data set [3] (setting [5]) was determined as 172 ng·h/mL. Besides, the Cmax in data set [3] (setting [6]) was 28.3 ng/mL. Besides, the half-life in data set [3] (setting [7]) is 5.76 h.
With `C=CC(=O)Nc1cc(Nc2nccc(-c3cn(C)c4ccccc34)n2)c(OCC(F)(F)F)nc1N(C)CCN(C)C` [Example 1, N-{2-{[2-(dimethylamino)ethyl](methyl)amino}-6-(2,2,2-trifluoroethoxy)-5-{[4-(1-methyl-1H-indol-3-yl)pyrimidin-2-yl]amino}pyridin-3-yl}acrylamide], the values for the AUC(0-t) in data set [2] (setting [8]) and in data set [3] (setting [5]) were 307.3 ng·h/mL and 232 ng·h/mL, respectively. In addition, the results for the Cmax in data set [2] (setting [8]) and in data set [3] (setting [4]) were 81.3 ng/mL and 17.6 ng/mL, respectively. Moreover, in data set [2] (setting [8]), the “T1/2 (elimination half-life)” value is recorded as 3.96 h. Also, the “F (absolute bioavailability)” value in data set [3] (intragastric vs intravenous, calculated from AUC0-t after dosage calibration) is 18.85%.
